# Experimental data from PMC11239830, “Synthetic macrolides overcoming MLSBK-resistant pathogens” (Cell Discovery, 2024).
# Where two headings read alike, the source gives them in different places.
# Tests used:
# Experiment in all cases: MIC, broth microdilution
# S. pyogenes = format: cell-based, Streptococcus pyogenes; details: S. pyogenes 12-206, c-ermTR
# Experimental: (§1) MICs were determined by the microdilution method according to the Clinical and Laboratory Standards Institute guidelines. […] Finally, the 96-well plates were incubated at 37 °C for 16–20 h to observe and record the results. […] The assay for MICs was replicated at least three times.
# S. pneumoniae = format: cell-based, Streptococcus pneumoniae
# Experimental: as §1
# H. influenzae = format: cell-based, Haemophilus influenzae
# Experimental: as §1
# S. aureus = format: cell-based, Staphylococcus aureus
# Experimental: as §1
# [1] = Streptococcus pyogenes, read-out: MIC
# [2] = Streptococcus pneumoniae, ATCC49619, S. pneumoniae ATCC49619, Ery-S, read-out: MIC
# [3] = Streptococcus pneumoniae, S. pneumoniae 07P390, c-ermB, read-out: MIC
# [4] = Streptococcus pneumoniae, S. pneumoniae PU09, mef, read-out: MIC
# [5] = Haemophilus influenzae, ATCC49247, H. influenzae ATCC49247, Azi-S, read-out: MIC
# [6] = Staphylococcus aureus, S. aureus 15B196, c-ermB, read-out: MIC
# [7] = Staphylococcus aureus, S. aureus PU32, i-ermA, read-out: MIC
Compound,MIC (S. pyogenes; [1]),MIC (S. pneumoniae; [2]),MIC (S. pneumoniae; [3]),MIC (S. pneumoniae; [4]),MIC (H. influenzae; [5]),MIC (S. aureus; [6]),MIC (S. aureus; [7]),MIC (S. pyogenes),"MIC (S. pneumoniae; S. pneumoniae 07P390, c-ermB)","MIC (S. pneumoniae; S. pneumoniae ATCC49619, Ery-S)","MIC (S. pneumoniae; S. pneumoniae PU09, mef)","MIC (H. influenzae; H. influenzae ATCC49247, Azi-S)","MIC (S. aureus; S. aureus 15B196, c-ermB)","MIC (S. aureus; S. aureus PU32, i-ermA)"
CCC1OC(=O)C(C)C(OC(=O)NCCCOCCC#Cc2ccc3c(=O)c(C(=O)O)cn(C4CC4)c3c2)C(C)C(OC2OC(C)CC(N(C)C)C2O)C(C)(OC)CC(C)C(=NOC)C(C)C2OC(=O)OC12C (stereo not drawn) [72c],1 µg/mL,≤ 0.008 µg/mL,0.12 µg/mL,≤ 0.008 µg/mL,16 µg/mL,32 µg/mL,2 µg/mL,,,,,,,
CC[C@H]1OC(=O)[C@H](C)[C@@H](OC(=O)NCCCCCCC#Cc2ccc3cc(C(=O)O)cnc3c2)[C@H](C)[C@@H](O[C@@H]2O[C@H](C)C[C@H](N(C)C)[C@H]2O)[C@](C)(OC)C[C@@H](C)C(=O)[C@H](C)[C@H]2NC(=O)O[C@@]21C [88j],128 µg/mL,0.5 µg/mL,> 256 µg/mL,1 µg/mL,128 µg/mL,> 256 µg/mL,8 µg/mL,,,,,,,
CC[C@H]1OC(=O)[C@H](C)[C@@H](OC(=O)NCCCCCCc2ccc3c(c2)c(=O)c(C(N)=O)cn3C2CC2)[C@H](C)[C@@H](O[C@@H]2O[C@H](C)C[C@H](N(C)C)[C@H]2O)[C@](C)(OC)C[C@@H](C)C(=NOC)[C@H](C)[C@H]2OC(=O)O[C@@]21C [60b],,,,,,,,32 µg/mL,32 µg/mL,0.25 µg/mL,1 µg/mL,> 256 µg/mL,> 256 µg/mL,128 µg/mL
CC[C@H]1OC(=O)[C@H](C)[C@@H](OC(=O)NCCCOCCC#Cc2ccc3c(=O)c(C(=O)O)c[nH]c3c2)[C@H](C)[C@@H](O[C@@H]2O[C@H](C)C[C@H](N(C)C)[C@H]2O)[C@](C)(OC)C[C@@H](C)C(=O)[C@H](C)[C@H]2NC(=O)O[C@@]21C [95i],1 µg/mL,0.12 µg/mL,1 µg/mL,0.5 µg/mL,16 µg/mL,128 µg/mL,8 µg/mL,,,,,,,
CC[C@H]1OC(=O)[C@H](C)[C@@H](OC(=O)NCCCCCC#Cc2ccc3c(c2)c(=O)c(C(=O)O)cn3C2CC2)[C@H](C)[C@@H](O[C@@H]2O[C@H](C)C[C@H](N(C)C)[C@H]2O)[C@](C)(O)C[C@@H](C)CN(C)[C@H](C)[C@H]2OC(=O)O[C@@]21C [110a],,,,,,,,512 µg/mL,256 µg/mL,1 µg/mL,2 µg/mL,32 µg/mL,256 µg/mL,16 µg/mL
CCC1OC(=O)C(C)C(OC(=O)NCCCCCCCc2ccc3c(=O)c(C(=O)O)cn(C4CC4)c3c2)C(C)C(OC2OC(C)CC(N(C)C)C2O)C(C)(OC)CC(C)C(=NOC)C(C)C2OC(=O)OC12C (stereo not drawn) [61c],2 µg/mL,≤ 0.008 µg/mL,0.5 µg/mL,≤ 0.008 µg/mL,> 256 µg/mL,64 µg/mL,8 µg/mL,,,,,,,
CC[C@H]1OC(=O)[C@H](C)[C@@H](OC(=O)NCCCOCCC#Cc2ccc3cc(C(=O)O)cnc3c2)[C@H](C)[C@@H](O[C@@H]2O[C@H](C)C[C@H](N(C)C)[C@H]2O)[C@](C)(OC)C[C@@H](C)C(=O)[C@H](C)[C@H]2NC(=O)O[C@@]21C [95j],128 µg/mL,1 µg/mL,> 256 µg/mL,8 µg/mL,128 µg/mL,> 256 µg/mL,64 µg/mL,,,,,,,
CC[C@H]1OC(=O)[C@H](C)[C@@H](OC(=O)NCCCCCCCc2ccc3c(c2)c(=O)c(C(N)=O)cn3C2CC2)[C@H](C)[C@@H](O[C@@H]2O[C@H](C)C[C@H](N(C)C)[C@H]2O)[C@](C)(OC)C[C@@H](C)C(=NOC)[C@H](C)[C@H]2OC(=O)O[C@@]21C [61b],,,,,,,,16 µg/mL,16 µg/mL,1 µg/mL,1 µg/mL,> 256 µg/mL,> 256 µg/mL,64 µg/mL
CC[C@H]1OC(=O)[C@H](C)[C@@H](OC(=O)NCCCC#Cc2ccc3c(=O)c(C(=O)O)cn(C4CC4)c3c2)[C@H](C)[C@@H](O[C@@H]2O[C@H](C)C[C@H](N(C)C)[C@H]2O)[C@](C)(O)C[C@@H](C)CN(C)[C@H](C)[C@H]2OC(=O)O[C@@]21C [108c],,,,,,,,64 µg/mL,128 µg/mL,0.25 µg/mL,1 µg/mL,8 µg/mL,512 µg/mL,64 µg/mL
CC[C@H]1OC(=O)[C@H](C)[C@@H](OC(=O)NCCCCCCC#Cc2ccc3c(c2)c(=O)c(C(=O)O)cn3C2CC2)[C@H](C)[C@@H](O[C@@H]2O[C@H](C)C[C@H](N(C)C)[C@H]2O)[C@](C)(O)C[C@@H](C)CN(C)[C@H](C)[C@H]2OC(=O)O[C@@]21C [111a],,,,,,,,128 µg/mL,256 µg/mL,0.5 µg/mL,2 µg/mL,16 µg/mL,128 µg/mL,32 µg/mL
CC[C@H]1OC(=O)[C@H](C)[C@@H](OC(=O)NCCCOCCC#Cc2ccc3c(c2)c(=O)c(C(=O)O)cn3C2CC2)[C@H](C)[C@@H](O[C@@H]2O[C@H](C)C[C@H](N(C)C)[C@H]2O)[C@](C)(O)C[C@@H](C)CN(C)[C@H](C)[C@H]2OC(=O)O[C@@]21C [117a],,,,,,,,512 µg/mL,512 µg/mL,1 µg/mL,2 µg/mL,32 µg/mL,512 µg/mL,32 µg/mL
CC[C@H]1OC(=O)[C@H](C)[C@@H](OC(=O)NCCCCCCC#Cc2ccc3c(=O)c(C(=O)O)cn(C4CC4)c3c2)[C@H](C)[C@@H](O[C@@H]2O[C@H](C)C[C@H](N(C)C)[C@H]2O)[C@](C)(O)C[C@@H](C)CN(C)[C@H](C)[C@H]2OC(=O)O[C@@]21C [111c],,,,,,,,2 µg/mL,0.5 µg/mL,≤ 0.008 µg/mL,≤ 0.008 µg/mL,8 µg/mL,16 µg/mL,4 µg/mL
CC[C@H]1OC(=O)[C@H](C)[C@@H](OC(=O)NCCOCCC#Cc2ccc3c(c2)c(=O)c(C(=O)O)cn3C2CC2)[C@H](C)[C@@H](O[C@@H]2O[C@H](C)C[C@H](N(C)C)[C@H]2O)[C@](C)(O)C[C@@H](C)CN(C)[C@H](C)[C@H]2OC(=O)O[C@@]21C [116a],,,,,,,,512 µg/mL,512 µg/mL,4 µg/mL,8 µg/mL,64 µg/mL,512 µg/mL,128 µg/mL
CC[C@H]1OC(=O)[C@H](C)[C@@H](OC(=O)NCCOCCC#Cc2ccc3c(=O)c(C(=O)O)cn(C4CC4)c3c2)[C@H](C)[C@@H](O[C@@H]2O[C@H](C)C[C@H](N(C)C)[C@H]2O)[C@](C)(O)C[C@@H](C)CN(C)[C@H](C)[C@H]2OC(=O)O[C@@]21C [116c],,,,,,,,8 µg/mL,4 µg/mL,0.12 µg/mL,1 µg/mL,8 µg/mL,512 µg/mL,32 µg/mL
CCC1OC(=O)C(C)C(OC(=O)NCCCCCC#Cc2ccc3c(=O)c(C(=O)O)cn(C4CC4)c3c2)C(C)C(OC2OC(C)CC(N(C)C)C2O)C(C)(OC)CC(C)C(=NOC)C(C)C2OC(=O)OC12C (stereo not drawn) [57c],1 µg/mL,≤ 0.008 µg/mL,0.5 µg/mL,0.06 µg/mL,8 µg/mL,16 µg/mL,4 µg/mL,,,,,,,
CC[C@H]1OC(=O)[C@H](C)[C@@H](OC(=O)NCCCCCC#Cc2ccc3c(=O)c(C(=O)O)cn(C4CC4)c3c2)[C@H](C)[C@@H](O[C@@H]2O[C@H](C)C[C@H](N(C)C)[C@H]2O)[C@](C)(O)C[C@@H](C)CN(C)[C@H](C)[C@H]2OC(=O)O[C@@]21C [110c],,,,,,,,2 µg/mL,1 µg/mL,0.016 µg/mL,0.06 µg/mL,8 µg/mL,128 µg/mL,4 µg/mL
CC[C@H]1OC(=O)[C@H](C)[C@@H](OC(=O)NCCNCCC#Cc2ccc3c(=O)c(C(=O)O)cn(C4CC4)c3c2)[C@H](C)[C@@H](O[C@@H]2O[C@H](C)C[C@H](N(C)C)[C@H]2O)[C@](C)(OC)C[C@@H](C)C(=NOC)[C@H](C)[C@H]2OC(=O)O[C@@]21C [74c],,,,,,,,2 µg/mL,0.5 µg/mL,0.016 µg/mL,0.12 µg/mL,16 µg/mL,256 µg/mL,8 µg/mL
CC[C@H]1OC(=O)[C@H](C)[C@@H](OC(=O)NCCCCCCCCCCc2ccc3c(c2)c(=O)c(C(N)=O)cn3C2CC2)[C@H](C)[C@@H](O[C@@H]2O[C@H](C)C[C@H](N(C)C)[C@H]2O)[C@](C)(OC)C[C@@H](C)C(=NOC)[C@H](C)[C@H]2OC(=O)O[C@@]21C [64b],,,,,,,,16 µg/mL,16 µg/mL,4 µg/mL,8 µg/mL,> 256 µg/mL,> 256 µg/mL,64 µg/mL
